Assay results published in PMC12635268, “Novel antimicrobial peptides and peptide-microbiome crosstalk in Appalachian salamander skin” (NPJ Biofilms and Microbiomes, 2025).
Where two headings read alike, the source gives them in different places. Ends that are not written are not given here.

Key:
P. aeruginosa PA01 (Si) = experiment: microbe, parasite or virus in culture; type: cell-based
Text: Supplement 41522_2025_837_MOESM13_ESM.xlsx, sheet "Table_S13_ESKAPEE-MIC" | column: Bacterial MIC (µg/mL)

A. baumannii 5075 = details: Week 2 (12/14/2023)
[1] = tested on: Batrachochytrium dendrobatidis Bd-GPL strain JEL404; details: for Bd inhibition score (percent inhibition), mean: slope of growth, positive = inhibition, negative = no inhibition
Description: Bd-peptide challenge assays were conducted with the crude peptides extracted from the salamander skin secretions and with the 20 synthesized peptides. We followed methods by Pereria et al.[49] to conduct assays with the crude peptides using Bd-GPL strain JEL404 at 1 × 10^6 zoospores/mL. Briefly, skin peptide samples were pooled together based on species-site-injection (Table 1). Skin peptides samples were serially diluted 2-fold in MilliQ (Ultrapure Type 1) water and assayed at a concentration of 2.35–75 μg/mL based on starting peptide concentration available. For synthesized peptides, we conducted assays from 15.6 to 500 μg/ml. In both assays, we quantified percent inhibition of each well using slope of growth[90] in which positive values indicate inhibition and negative values indicate no inhibition.

P. aeruginosa PA01 = experiment: microbe, parasite or virus in culture; type: cell-based; details: P. aeruginosa 15692 (PAO1); Week 2 (12/14/2023)
Description: Antimicrobial susceptibility testing of the 20 synthesized peptides against 17 bacterial strains of clinical relevance in the ESKAPEE panel was conducted using minimum inhibitory concentration (MIC) assays following the broth microdilution method outlined by Parker et al.[91]. The ESKAPEE panel is comprised of fourteen American Type Culture Collection (ATCC) strains and three Multidrug Resistant Organism Repository and Surveillance Network (MRSN) bacterial strains. These strains represent at least one drug-susceptible strain and one drug-resistant strain for each bacterium to assess drug efficacy across various resistance mechanisms. This panel is comprised of the following bacterial species and strains: E. faecium (ATCC 19434, ATCC 49224), S. aureus (ATCC 25923, ATCC 43300), K. pneumoniae (ATCC 700603, ATCC 13883, MRSN 1320), A. baumannii (ATCC 17978, ATCC 19606, MRSN 959), P. aeruginosa (ATCC 15692, ATCC 27853, MRSN 5519), E. cloacae (ATCC 13047, ATCC 35549), and E. coli (ATCC 35218, ATCC 43888). Bacteria were grown in cation-adjusted Mueller-Hinton broth (CAMHB) to achieve a final inoculum of 1 × 10⁵ CFU/mL. CAMHB is selected for its batch-to-batch reproducibility, low levels of antimicrobial inhibitors, and ability to support the growth of most bacterial pathogens.
Briefly, lyophilized peptides were dissolved in 0.2% TFA + 0.4% BSA in water to 2.56 mg/mL, ultrasonicated for 20 min, diluted 10-fold into CAMHB, and then serially diluted 2-fold in 0.02% TFA + 0.04% BSA in CAMHB and assayed at a concentration of 0.25 to 128 μg/mL. Assays were set up using the Tecan Freedom EVO liquid handling robot and software (Tecan, Switzerland) with 50 μL of bacterial inoculum and 50 μL of peptide transferred into round-bottom 96-well microtiter plates. Each plate assay was performed in duplicate and incubated at 37 °C for 20 h without agitation. Bacterial growth was assessed using the BIOMIC V3 Image Analysis system (Giles Scientific, USA) and the MIC values were determined visually according to the Clinical and Laboratory Standards Institute (CLSI) guidelines.

K. pneumoniae ATCC 13883 = experiment: microbe, parasite or virus in culture
Summary of the method: (§1)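 Broth microdilution MIC in cation-adjusted Mueller-Hinton broth, final inoculum 1 × 10⁵ CFU/mL. Peptides in 0.02% TFA + 0.04% BSA, 2-fold series 0.25 to 128 μg/mL, duplicate, 37 °C for 20 h without agitation. Growth imaged; MIC read visually per CLSI.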

[2] = tested on: K. pneumoniae ATCC 700603; experiment: microbe, parasite or virus in culture; details: K. pneumoniae 700603; Week 2 (12/14/2023)
Summary of the method: as §1

P. aeruginosa ATCC 27853 = experiment: microbe, parasite or virus in culture
Summary of the method: as §1

E. coli ATCC 43888 = experiment: microbe, parasite or virus in culture
Summary of the method: as §1

S. aureus ATCC 25923 = experiment: microbe, parasite or virus in culture
Summary of the method: as §1

E. cloacae ATCC 35549 = experiment: microbe, parasite or virus in culture
Summary of the method: as §1

A. baumannii ATCC 19606 = experiment: microbe, parasite or virus in culture
Summary of the method: as §1

E. coli ATCC 35218 = experiment: microbe, parasite or virus in culture; details: E. coli 35218; Week 2 (12/14/2023)
Summary of the method: as §1

E. faecium ATCC 49224 = experiment: microbe, parasite or virus in culture
Summary of the method: as §1

E. faecium ATCC 19434 = experiment: microbe, parasite or virus in culture
Summary of the method: as §1

E. cloacae ATCC 13047 = experiment: microbe, parasite or virus in culture
Summary of the method: as §1

A. baumannii ATCC 17978 = experiment: microbe, parasite or virus in culture
Summary of the method: as §1

S. aureus ATCC 43300 = experiment: microbe, parasite or virus in culture; details: S. aureus 43300; Week 2 (12/14/2023)
Summary of the method: as §1

P. aeruginosa MRSN 5519 = experiment: microbe, parasite or virus in culture
Summary of the method: as §1

[3] = design: method as in Biomatik (vendor); details: 1.0 mg peptide in 1.0 ml solvent; peptides synthesized by Biomatik; ref Biomatik (vendor); cited from earlier work
[4] = K. pneumoniae 4640, Week 2 (12/14/2023)
[5] = P. aeruginosa PA01 (Si), not typical ESKAPEE strain, Week 2 (12/14/2023)
[6] = synthesized peptide 15.625 μg/mL
[7] = synthesized peptide 31.25 μg/mL
[8] = K. pneumoniae 13883, Week 2 (12/14/2023)
[9] = P. aeruginosa 27853, Week 2 (12/14/2023)
[10] = E. coli 43888, Week 2 (12/14/2023)
[11] = S. aureus 25923, Week 2 (12/14/2023)
[12] = E. cloacae 35549, Week 2 (12/14/2023)
[13] = A. baumannii 19606, Week 2 (12/14/2023)
[14] = E. faecium 49224, Week 2 (12/14/2023)
[15] = E. faecium 19434, Week 2 (12/14/2023)
[16] = E. cloacae 13047, Week 2 (12/14/2023)
[17] = A. baumannii 17978, Week 2 (12/14/2023)
[18] = P. aeruginosa 5519, Week 2 (12/14/2023)

Substance | Bacterial MIC (K. pneumoniae 4640; [4]) [µg/mL] | Bacterial MIC (P. aeruginosa PA01 (Si); [5]) [µg/mL] | Bacterial MIC (A. baumannii 5075) [µg/mL] | Bd inhibition score (percent inhibition), mean [1, 6] [%] | Bd inhibition score (percent inhibition), mean [1, 7] [%] | Bd inhibition score (percent inhibition), mean ([1]; synthesized peptide 62.5 μg/mL) [%] | Bd inhibition score (percent inhibition), mean ([1]; synthesized peptide 125 μg/mL) [%] | Bd inhibition score (percent inhibition), mean ([1]; synthesized peptide 250 μg/mL) [%] | Bd inhibition score (percent inhibition), mean ([1]; synthesized peptide 500 μg/mL) [%] | Bacterial MIC (P. aeruginosa PA01) [µg/mL] | Bacterial MIC (K. pneumoniae ATCC 13883; [8]) [µg/mL] | Bacterial MIC [2] [µg/mL] | Bacterial MIC (P. aeruginosa ATCC 27853; [9]) [µg/mL] | Bacterial MIC (E. coli ATCC 43888; [10]) [µg/mL] | Bacterial MIC (S. aureus ATCC 25923; [11]) [µg/mL] | Bacterial MIC (E. cloacae ATCC 35549; [12]) [µg/mL] | Bacterial MIC (A. baumannii ATCC 19606; [13]) [µg/mL] | Bacterial MIC (E. coli ATCC 35218) [µg/mL] | Bacterial MIC (S. aureus ATCC 43300) [µg/mL] | Suggest solvent (solubility) [3] | other results
RMIRRPPGFTPFR [PrAd-Eb10] | >128.000 | >128.000 | >128.000 | -10.4305 | -6.071 | -6.0656 | -13.7553 | -14.8924 | -12.1229 | >128.000 | >128.000 | >128.000 | >128.000 | >128.000 | >128.000 | >128.000 | >128.000 | >128.000 | >128.000 | 1.0mg peptide soluble in 1.0ml H2O | Bacterial MIC (E. faecium ATCC 49224; [14]): >128.000 µg/mL; Bacterial MIC (E. faecium ATCC 19434; [15]): >128.000 µg/mL; Bacterial MIC (E. cloacae ATCC 13047; [16]): >128.000 µg/mL; Bacterial MIC (A. baumannii ATCC 17978; [17]): >128.000 µg/mL; Bacterial MIC (P. aeruginosa MRSN 5519; [18]): >128.000 µg/mL
EPVPPGFTPFR [PrAd-Eb13] | >128.000 | >128.000 | >128.000 | -15.8993 | -14.7717 | -15.0589 | -17.1018 | -17.5569 | -12.696 | >128.000 | >128.000 | >128.000 | >128.000 | >128.000 | >128.000 | >128.000 | >128.000 | >128.000 | >128.000 | 1.0mg peptide soluble in 1.0ml H2O | Bacterial MIC (E. faecium ATCC 49224; [14]): >128.000 µg/mL; Bacterial MIC (E. faecium ATCC 19434; [15]): >128.000 µg/mL; Bacterial MIC (E. cloacae ATCC 13047; [16]): >128.000 µg/mL; Bacterial MIC (A. baumannii ATCC 17978; [17]): >128.000 µg/mL; Bacterial MIC (P. aeruginosa MRSN 5519; [18]): >128.000 µg/mL
SGLRGSL [PrMb-Eb19] | – | – | >128.000 | – | – | -38.0157 | – | – | – | >128.000 | – | >128.000 | – | – | – | – | – | >128.000 | >128.000 | 1.0mg peptide soluble in 1.0ml H2O | Bacterial MIC (K. pneumoniae 4640; 4640, 20 h): >128.000 µg/mL; Bacterial MIC (P. aeruginosa PA01 (Si); Si): >128.000 µg/mL; Bacterial MIC (K. pneumoniae ATCC 13883; ATCC 13883, 20 h): >128.000 µg/mL; Bacterial MIC (P. aeruginosa ATCC 27853; ATCC 27853, 20 h): >128.000 µg/mL; Bacterial MIC (E. coli ATCC 43888; ATCC 43888, 20 h): >128.000 µg/mL; Bacterial MIC (S. aureus ATCC 25923; ATCC 25923, 20 h): >128.000 µg/mL; Bacterial MIC (E. cloacae ATCC 35549; ATCC 35549, 20 h): >128.000 µg/mL; Bacterial MIC (A. baumannii ATCC 19606; ATCC 19606, 20 h): >128.000 µg/mL; Bacterial MIC (E. faecium ATCC 49224; ATCC 49224, 20 h): >128.000 µg/mL; Bacterial MIC (E. faecium ATCC 19434; ATCC 19434, 20 h): >128.000 µg/mL; Bacterial MIC (E. cloacae ATCC 13047; ATCC 13047, 20 h): >128.000 µg/mL; Bacterial MIC (A. baumannii ATCC 17978; ATCC 17978, 20 h): >128.000 µg/mL; Bacterial MIC (P. aeruginosa MRSN 5519; MRSN 5519, 20 h): >128.000 µg/mL
FPRPPGFTPFR [PrAd-Eb12] | >128.000 | >128.000 | >128.000 | -2.358 | 4.727 | 5.096 | 3.64 | 0.8166 | 9.489 | >128.000 | >128.000 | >128.000 | >128.000 | >128.000 | >128.000 | >128.000 | >128.000 | >128.000 | >128.000 | 1.0mg peptide soluble in 1.0ml H2O | mild Bd inhibition, average across concentrations ([1]; synthesized peptide, concentrations down to 31.25 μg/mL): 1–9.5%; Bacterial MIC (E. faecium ATCC 49224; [14]): >128.000 µg/mL; Bacterial MIC (E. faecium ATCC 19434; [15]): >128.000 µg/mL; Bacterial MIC (E. cloacae ATCC 13047; [16]): >128.000 µg/mL; Bacterial MIC (A. baumannii ATCC 17978; [17]): >128.000 µg/mL; Bacterial MIC (P. aeruginosa MRSN 5519; [18]): >128.000 µg/mL
